Reference: PubChem BioAssay AID2060906 (Molecular Pharmacology Branch, DTP, NCI, 2025)

System: 485176-168-R4-J1-PDC complex spheroid growth
Assay: Anticancer human tumor 485176-168-R4-J1-PDC patient-derived pancreatic adenocarcinoma cell line growth inhibition [RAS]
Settings: for viability, T/C: stronger effect = lower value
Procedure, shortened: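 Multi-cell-type spheroids: tumor cells plus HUVEC endothelial cells and mesenchymal stem cells. RAS-pathway inhibitors were combined with targeted agents, each dosed in half-log steps down from clinical Cmax, or from 10 microM when Cmax was unknown.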
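Also: spheroids exposed to compounds for seven days before readout.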
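For viability, T/C in this document: luminescence viability expressed relative to DMSO vehicle wells set as 100%.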

CC(Nc1ccc2c(c1)OCCn1cc(N3C(=O)OCC3C(F)F)nc1-2)C(N)=O (stereo not given) + C=CC(=O)N1CCN(c2nc(OCC3CCCN3C)nc3c(F)c(-c4nc(N)cc(C)c4C(F)(F)F)c(Cl)cc23)C(C)C1
IC50 (curve of first compound, second compound 0.00316 µM): > 10000 nM | IC50 (curve of first compound, second compound 0.01 µM): > 10000 nM | IC50 (curve of first compound, second compound 0.0316 µM): > 10000 nM | IC50 (curve of first compound, second compound 0.1 µM): > 10000 nM | IC50 (curve of first compound, second compound 0.316 µM): > 10000 nM | IC50 (curve of first compound, second compound 1 µM): 8190 nM | viability, T/C (second compound 0.00316 µM, first compound 0.0316 µM): 91.2% | viability, T/C (second compound 0.00316 µM, first compound 0.1 µM): 83.3% | viability, T/C (second compound 0.00316 µM, first compound 0.316 µM): 64.8% | viability, T/C (second compound 0.00316 µM, first compound 1 µM): 69.9% | viability, T/C (second compound 0.00316 µM, first compound 3.16 µM): 58.1% | viability, T/C (second compound 0.00316 µM, first compound 10 µM): 52.1% | viability, T/C (second compound 0.01 µM, first compound 0.0316 µM): 90.3% | viability, T/C (second compound 0.01 µM, first compound 0.1 µM): 98.4% | viability, T/C (second compound 0.01 µM, first compound 0.316 µM): 88.9% | viability, T/C (second compound 0.01 µM, first compound 1 µM): 73.6% | viability, T/C (second compound 0.01 µM, first compound 3.16 µM): 77.9% | viability, T/C (second compound 0.01 µM, first compound 10 µM): 59.1% | viability, T/C (second compound 0.0316 µM, first compound 0.0316 µM): 102% | viability, T/C (second compound 0.0316 µM, first compound 0.1 µM): 78.5% | viability, T/C (second compound 0.0316 µM, first compound 0.316 µM): 79% | viability, T/C (second compound 0.0316 µM, first compound 1 µM): 81.8% | viability, T/C (second compound 0.0316 µM, first compound 3.16 µM): 63.6% | viability, T/C (second compound 0.0316 µM, first compound 10 µM): 62.8% | viability, T/C (second compound 0.1 µM, first compound 0.0316 µM): 82.9% | viability, T/C (second compound 0.1 µM, first compound 0.1 µM): 99% | viability, T/C (second compound 0.1 µM, first compound 0.316 µM): 63% | viability, T/C (second compound 0.1 µM, first compound 1 µM): 60.2% | viability, T/C (second compound 0.1 µM, first compound 3.16 µM): 61.8% | viability, T/C (second compound 0.1 µM, first compound 10 µM): 43.6% | viability, T/C (second compound 0.316 µM, first compound 0.0316 µM): 108% | viability, T/C (second compound 0.316 µM, first compound 0.1 µM): 83% | viability, T/C (second compound 0.316 µM, first compound 0.316 µM): 81.5% | viability, T/C (second compound 0.316 µM, first compound 1 µM): 69.8% | viability, T/C (second compound 0.316 µM, first compound 3.16 µM): 75.6% | viability, T/C (second compound 0.316 µM, first compound 10 µM): 57.3% | viability, T/C (second compound 1 µM, first compound 0.0316 µM): 85.9% | viability, T/C (second compound 1 µM, first compound 0.1 µM): 85.7% | viability, T/C (second compound 1 µM, first compound 0.316 µM): 69.5% | viability, T/C (second compound 1 µM, first compound 1 µM): 76.3% | viability, T/C (second compound 1 µM, first compound 3.16 µM): 55.7% | viability, T/C (second compound 1 µM, first compound 10 µM): 48.8%

CCn1c(-c2cccnc2C(C)OC)c2c3cc(ccc31)N1CCOC(CC(NC(=O)C(C(C)C)N(C)C(=O)C3(F)CCN(C(=O)C#CC(C)(C)N(C)C)CC3)C(=O)N3CCCC(N3)C(=O)OCC(C)(C)C2)C1 (stereo not given)
viability, T/C (compound 0.003 µM): 104% [middle of 8 runs] | viability, T/C (compound 0.00949 µM): 107% [middle of 8 runs] | viability, T/C (compound 0.03 µM): 93.8% [middle of 8 runs] | viability, T/C (compound 0.0949 µM): 93% [middle of 8 runs] | viability, T/C (compound 0.3 µM): 81.7% [middle of 8 runs] | IC50 (compound alone, run of 05/20/2024): > 300 nM

O=C(c1ccc(F)c(F)c1Nc1ccc(I)cc1F)N1CC(O)([C@@H]2CCCCN2)C1 + CCn1c(-c2cc(N3CCN(C)CC3)cnc2C(C)OC)c2c3cc(ccc31)-c1csc(n1)CC(NC(=O)C1CC1C)C(=O)N1CCCC(N1)C(=O)OCC(C)(C)C2
IC50 (curve of first compound, second compound 0.000949 µM): 116 nM | IC50 (curve of first compound, second compound 0.003 µM): 90.2 nM | IC50 (curve of first compound, second compound 0.00949 µM): 33 nM | IC50 (curve of first compound, second compound 0.03 µM): 22.9 nM | IC50 (curve of first compound, second compound 0.0949 µM): 14.5 nM | IC50 (curve of first compound, second compound 0.3 µM): < 3.16 nM | viability, T/C (second compound 0.000949 µM, first compound 0.00316 µM): 87.1% | viability, T/C (second compound 0.000949 µM, first compound 0.01 µM): 62.7% | viability, T/C (second compound 0.000949 µM, first compound 0.0316 µM): 65.1% | viability, T/C (second compound 0.000949 µM, first compound 0.1 µM): 51% | viability, T/C (second compound 0.000949 µM, first compound 0.316 µM): 43.8% | viability, T/C (second compound 0.000949 µM, first compound 1 µM): 34.1% | viability, T/C (second compound 0.003 µM, first compound 0.00316 µM): 85.9% | viability, T/C (second compound 0.003 µM, first compound 0.01 µM): 75.5% | viability, T/C (second compound 0.003 µM, first compound 0.0316 µM): 63.8% | viability, T/C (second compound 0.003 µM, first compound 0.1 µM): 48.5% | viability, T/C (second compound 0.003 µM, first compound 0.316 µM): 38.8% | viability, T/C (second compound 0.003 µM, first compound 1 µM): 35.2% | viability, T/C (second compound 0.00949 µM, first compound 0.00316 µM): 75.3% | viability, T/C (second compound 0.00949 µM, first compound 0.01 µM): 56.6% | viability, T/C (second compound 0.00949 µM, first compound 0.0316 µM): 51.7% | viability, T/C (second compound 0.00949 µM, first compound 0.1 µM): 45.9% | viability, T/C (second compound 0.00949 µM, first compound 0.316 µM): 36.1% | viability, T/C (second compound 0.00949 µM, first compound 1 µM): 35% | viability, T/C (second compound 0.03 µM, first compound 0.00316 µM): 62.5% | viability, T/C (second compound 0.03 µM, first compound 0.01 µM): 59.3% | viability, T/C (second compound 0.03 µM, first compound 0.0316 µM): 45.2% | viability, T/C (second compound 0.03 µM, first compound 0.1 µM): 38.8% | viability, T/C (second compound 0.03 µM, first compound 0.316 µM): 31.3% | viability, T/C (second compound 0.03 µM, first compound 1 µM): 31.4% | viability, T/C (second compound 0.0949 µM, first compound 0.00316 µM): 65.4% | viability, T/C (second compound 0.0949 µM, first compound 0.01 µM): 56.9% | viability, T/C (second compound 0.0949 µM, first compound 0.0316 µM): 36.5% | viability, T/C (second compound 0.0949 µM, first compound 0.1 µM): 37.2% | viability, T/C (second compound 0.0949 µM, first compound 0.316 µM): 30.9% | viability, T/C (second compound 0.0949 µM, first compound 1 µM): 25.7% | viability, T/C (second compound 0.3 µM, first compound 0.00316 µM): 48.6% | viability, T/C (second compound 0.3 µM, first compound 0.01 µM): 44.4% | viability, T/C (second compound 0.3 µM, first compound 0.0316 µM): 36.6% | viability, T/C (second compound 0.3 µM, first compound 0.1 µM): 28.6% | viability, T/C (second compound 0.3 µM, first compound 0.316 µM): 28.8% | viability, T/C (second compound 0.3 µM, first compound 1 µM): 25.9%
